Measured values reported in patent US8354402B2, “Polyarylcarboxamides useful as lipid lowering agents” (Janssen Pharmaceutica N.V., priority 2000, dated 2013).

Test system: ApoB secretion, HepG2 cells
Assay: Quantification of the secretion of ApoB (HepG2 cells, immunoprecipitation, scintillation counting)
Assay type: cell-based
Settings: 24 hours of incubation; for IC50: Homo sapiens
In short: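 HepG2 cells in MEM Rega 3 with 10% FCS were treated at 70% confluency with compound (DMSO 0.4% final) for 24 h. Medium ApoB was immunoprecipitated with sheep anti-apoB then rabbit anti-sheep antibody (24 h each, 8° C), and pellet radioactivity was counted by liquid scintillation to give IC50.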

Compound	IC50 (HepG2, 24 h) [nM]	also measured
C#CCOC(=O)C(c1ccccc1)N1CCC(c2ccc(NC(=O)c3ccccc3-c3ccc(C(F)(F)F)cc3)cc2)CC1 (centres unmarked) [Co. No. 225]	67.6	
CC(C)CCOC(=O)C(c1ccccc1)N1CCC(c2ccc(NC(=O)c3ccccc3-c3ccc(C(F)(F)F)cc3)cc2)CC1 (centres unmarked) [Co. No. 227]	187	
CCc1ccc(-c2ccccc2C(=O)Nc2ccc(N3CCC(C(C(=O)OC)c4ccccc4)CC3)cc2)cc1 (centres unmarked) [Co. No. 231]	< 30	
COC(=O)C(c1ccccc1)C1CCN(c2ccc(NC(=O)c3ccccc3-c3ccc(CC(C)C)cc3)cc2)CC1 (centres unmarked) [Co. No. 233]	< 30	
CCc1ccc(-c2c(C)cccc2C(=O)Nc2ccc(N3CCC(C(C(=O)OC)c4ccccc4)CC3)cc2)cc1 (centres unmarked) [Co. No. 234]	< 30	
COC(=O)C(c1ccccc1)C1CCN(c2ccc(NC(=O)c3cccc(C)c3-c3ccc(C(C)C)cc3)cc2)CC1 (centres unmarked) [Co. No. 235]	< 30	
COC(=O)C(c1ccccc1)C1CCN(c2ccc(NC(=O)c3cccc(C)c3-c3ccc(CC(C)C)cc3)cc2)CC1 (centres unmarked) [Co. No. 236]	21.7	
COC(=O)C(c1ccccc1)C1CCN(c2ccc(NC(=O)c3cccc(C)c3-c3ccc(C(C)(C)C)cc3)cc2)CC1 (centres unmarked) [Co. No. 237]	< 30	
COC(=O)C(c1ccccc1)C1CCN(c2ccc(NC(=O)c3ccccc3-c3ccc(C(C)(C)C)cc3)cc2)CC1 (centres unmarked) [Co. No. 238]		pIC50 (listed as 238): 7.824
COC(=O)C(c1ccccc1)N1CCN(c2ccc(NC(=O)c3ccccc3-c3ccc(C(F)(F)F)cc3)cc2)CC1 (centres unmarked) [Co. No. 240]		pIC50 (listed as 240): 7.982
CCOC(=O)C(c1ccccc1)C1CCN(c2ccc(NC(=O)c3ccccc3-c3ccc(C(F)(F)F)cc3)cc2)CC1 (centres unmarked) [Co. No. 243]	< 30	
CC(C)=CCOC(=O)C(c1ccccc1)C1CCN(c2ccc(NC(=O)c3ccccc3-c3ccc(C(F)(F)F)cc3)cc2)CC1 (centres unmarked) [Co. No. 245]	525	
O=C(Nc1ccc(N2CCC(C(C(=O)OCCCc3ccccc3)c3ccccc3)CC2)cc1)c1ccccc1-c1ccc(C(F)(F)F)cc1 (centres unmarked) [Co. No. 246]	173	
CCC(CC)OC(=O)C(c1ccccc1)C1CCN(c2ccc(NC(=O)c3ccccc3-c3ccc(C(F)(F)F)cc3)cc2)CC1 (centres unmarked) [Co. No. 247]	> 3000	
C#CCOC(=O)C(c1ccccc1)C1CCN(c2ccc(NC(=O)c3ccccc3-c3ccc(C(F)(F)F)cc3)cc2)CC1 (centres unmarked) [Co. No. 248]	68.5	
CC(C)CCOC(=O)C(c1ccccc1)C1CCN(c2ccc(NC(=O)c3ccccc3-c3ccc(C(F)(F)F)cc3)cc2)CC1 (centres unmarked) [Co. No. 249]	> 3000	
O=C(Nc1ccc(N2CCC(C(C(=O)OCCc3ccccc3)c3ccccc3)CC2)cc1)c1ccccc1-c1ccc(C(F)(F)F)cc1 (centres unmarked) [Co. No. 250]	233	
COC(=O)N(c1ccccc1)C1CCN(c2ccc(NC(=O)c3ccccc3-c3ccc(C(F)(F)F)cc3)cc2)CC1 [Co. No. 251]		IC50: 9.64 nM
CCNC(=O)N(c1ccccc1)C1CCN(c2ccc(NC(=O)c3ccccc3-c3ccc(C(F)(F)F)cc3)cc2)CC1 [Co. No. 252]		IC50: 12.2 nM
CC(=O)N(c1ccccc1)C1CCN(c2ccc(NC(=O)c3ccccc3-c3ccc(C(F)(F)F)cc3)cc2)CC1 [Co. No. 253]		IC50: 130 nM
O=C(Nc1ccc(N2CCC(C(C(=O)NCc3ccccc3)c3ccc(F)cc3)CC2)cc1)c1ccccc1-c1ccc(C(F)(F)F)cc1 (centres unmarked) [Co. No. 254]	28.8	
CC(C)(C)c1ccc(-c2ccccc2C(=O)Nc2ccc(N3CCC(C(C(=O)NCc4ccccc4)c4ccc(F)cc4)CC3)cc2)cc1 (centres unmarked) [Co. No. 255]	5.04	
CCNC(=O)C(c1ccc(F)cc1)C1CCN(c2ccc(NC(=O)c3ccccc3-c3ccc(C(F)(F)F)cc3)cc2)CC1 (centres unmarked) [Co. No. 256]	15.1	
CCNC(=O)C(c1ccc(F)cc1)C1CCN(c2ccc(NC(=O)c3ccccc3-c3ccc(C(C)(C)C)cc3)cc2)CC1 (centres unmarked) [Co. No. 257]	13.9	
COC(=O)C(c1ccccc1Cl)N1CCN(c2ccc(NC(=O)c3ccccc3-c3ccc(C(F)(F)F)cc3)cc2)CC1 (centres unmarked) [Co. No. 258]	139	
COC(=O)C(c1ccc(Cl)cc1Cl)N1CCN(c2ccc(NC(=O)c3ccccc3-c3ccc(C(F)(F)F)cc3)cc2)CC1 (centres unmarked) [Co. No. 259]	420	
